Laboratory results as given in ChEMBL document CHEMBL1141838, “Application of lipase-catalyzed regioselective esterification in the preparation of digitonin derivatives” (J Nat Prod, 1999).

Experiment: Toxic hemolytic activity against RBC assessed as hemolytic index
Assay type: ADME, cell-based
Conditions: erythrocyte

Row | Compound | Activity
1 | C[C@@H]1CC[C@@]2(OC1)O[C@H]1[C@@H](O)[C@H]3[C@@H]4CC[C@H]5C[C@@H](O[C@@H]6O[C@H](CO)[C@H](O[C@@H]7O[C@H](CO)C(O)[C@H](O[C@@H]8OC[C@@H](O)[C@H](O)[C@H]8O)[C@H]7O[C@@H]7O[C@H](CO)[C@H](O)[C@H](O[C@@H]8O[C@H](CO)[C@@H](O)[C@H](O)[C@H]8O)[C@H]7O)[C@H](O)[C@H]6O)[C@H](O)C[C@]5(C)[C@H]4CC[C@]3(C)[C@H]1[C@@H]2C (some centres undefined) [DIGITONIN] | 135000
2 | CC(=O)OC[C@H]1O[C@@H](O[C@H]2[C@@H](O)[C@@H](CO)O[C@@H](O[C@H]3[C@H](O[C@@H]4C[C@@H]5CC[C@H]6[C@@H]7[C@H](O)[C@@H]8O[C@]9(CC[C@@H](C)CO9)[C@@H](C)[C@@H]8[C@@]7(C)CC[C@@H]6[C@@]5(C)C[C@H]4O)O[C@H](CO)[C@H](O[C@@H]4O[C@H](CO)[C@@H](O)[C@H](O[C@@H]5OC[C@@H](OC(C)=O)[C@H](O)[C@@H]5O)[C@H]4O)[C@@H]3O)[C@@H]2O)[C@H](O)[C@@H](O)[C@@H]1O | 43000
3 | CC(=O)O[C@@H]1CO[C@@H](O[C@@H]2[C@@H](O)[C@H](O[C@@H]3[C@H](O)[C@@H](O[C@@H]4O[C@H](CO)[C@H](O)[C@H](O[C@@H]5O[C@H](CO)[C@@H](O)[C@H](O)[C@H]5O)[C@H]4O)[C@H](O[C@@H]4C[C@@H]5CC[C@H]6[C@@H]7[C@H](O)[C@@H]8O[C@]9(CC[C@@H](C)CO9)[C@@H](C)[C@@H]8[C@@]7(C)CC[C@@H]6[C@@]5(C)C[C@H]4O)O[C@@H]3CO)O[C@H](CO)[C@H]2O)[C@@H](O)[C@H]1O | 52000
4 | CC(=O)OC[C@H]1O[C@@H](O[C@H]2[C@@H](O)[C@@H](CO)O[C@@H](O[C@H]3[C@H](O[C@@H]4C[C@@H]5CC[C@H]6[C@@H]7[C@H](O)[C@@H]8O[C@]9(CC[C@@H](C)CO9)[C@@H](C)[C@@H]8[C@@]7(C)CC[C@@H]6[C@@]5(C)C[C@H]4O)O[C@H](CO)[C@H](O[C@@H]4O[C@H](CO)[C@@H](O)[C@H](O[C@@H]5OC[C@@H](O)[C@H](O)[C@@H]5O)[C@H]4O)[C@@H]3O)[C@@H]2O)[C@H](O)[C@@H](O)[C@@H]1O | 40000
